Reference: ChEMBL document CHEMBL1159378, “Continuing studies on the cyanobacterium Lyngbya sp.: isolation and structure determination of 15-norlyngbyapeptin A and lyngbyabellin D” (J Nat Prod, 2003)

What follows are compounds tested on KB (assay: Cytotoxicity against human KB cells).
Type: functional, cell-based

| Compound | IC50 |
| --- | --- |
| CC[C@H](C)[C@@H](C(=O)N1CCC[C@H]1c1nccs1)N(C)C(=O)[C@H](CC(C)C)N(C)C(=O)[C@H](Cc1ccc(OC)cc1)N(C)C(=O)/C=C(\C)OC [LYNGBYAPEPTIN A] | > 5000 nM |
| CC[C@H](C)[C@@H](C(=O)N1CCC[C@H]1c1nccs1)N(C)C(=O)[C@H](CC(C)C)N(C)C(=O)[C@H](Cc1ccc(O)cc1)N(C)C(=O)/C=C(\C)OC [15-NORLYNGBYAPEPTIN A] | 1300 nM |
| CCCC(=O)N[C@@H](C(C)C)[C@H](CC(=O)OC[C@@H](O)c1nc(C(=O)O[C@@H](CCCC(C)(Cl)Cl)[C@@H](C)C(=O)O[C@@H](c2nc(C(=O)OC)cs2)[C@](C)(O)CC)cs1)OC(C)=O [LYNGBYABELLIN D] | 100 nM |
